Data as given in publication PMC2678990, “Stilbene glycosides are natural product inhibitors of FGF-2-induced angiogenesis” (BMC Cell Biology, 2009).

Tests used:
[1] = test system: BAEC; assay: FGF-2-induced chemotaxis, Boyden chamber assay; assay type: cell-based, bovine; details: Bos taurus, 6 h, FGF-2 25 ng/ml
Method: The effect of compounds 1 and 2 on cell migration was examined in vitro using a modified Boyden chamber system with 8.0 μm pore polycarbonate filter inserts (TSL, UK). The filter was coated overnight with 0.1%w/v gelatine, and air-dried. Cells (1 × 10^5) were placed in the upper part of the filter and test compounds at different concentrations with and without growth factors were added to the lower part in SPM. Cells were incubated at 37°C for 6 h and the filter removed and the upper side containing non migrated cells wiped and rinsed. The filters were fixed (4% paraformaldehyde), and stained (Geimsa) and cell migration in duplicate wells was determined by counting cell numbers on the lower surface. Experiments were performed in triplicate and at least two times.

[2] = test system: HDMEC; assay: FGF-2 invasion in Matrigel; assay type: cell-based, human; details: Homo sapiens, FGF-2 25 ng/ml
[3] = test system: BAEC; assay: Regression of established tubular networks; assay type: cell-based, bovine; details: Bos taurus, established FGF-2 tubular network, 24 h
Method: Tube regression under the influence of the test compounds was also investigated. Cell suspensions were mixed with Matrigel supplemented with FGF-2 (25 ng/ml) in 15% FCS as described above.

[4] = test system: chick chorioallantoic membrane; assay: Chick chorioallantoic membrane (CAM) assay; assay type: in vivo
Method: The angiogenic activity of test compounds was determined using the semi-quantitative chick chorioallantoic assay (CAM) as described previously. To expose the CAM a window was created in the shells of 4 day-old chicken eggs. […] […] This approach enabled calculation of an accumulated response in each group. To photograph the membrane, 2 cm^3 of a 50% emulsion of aqueous paraffin oil containing 2% Tween-80 was injected at the site of application and photographed using a Leitz dissecting microscope. Each experiment was performed five times and statistical significance was determined by the Mann-Whitney U test and the data is expressed as a median value (m).

[5] = test system: HDMEC; assay: Toxicity: MTT and active caspase-3 assays; assay type: cell-based, human
Method: Stilbene glycoside toxicity was determined using the MTT and active caspase-3 assays. BAECs or HDMECs (7.5 × 10^3) were seeded in a 96 well plate and incubated for 4 h to allow cell adhesion. The test compound or staurosporine (1 μM), an inducer of active caspase-3 and therefore of apoptosis was added to the wells. Control cells were treated with PBS and the plate was incubated at room temperature for 72 hours. MTT reagent (10 μl) was added followed by incubation at room temperature for 2–4 h. When a purple precipitate was visible, detergent reagent (100 μl) was added to the plates and incubated at room temperature for 2 h in the dark. Absorbance was measured at 570 nm using a microplate reader.
In the apoptosis assay, HDMECs or BAEC (4 × 10^4/ml) in complete medium were added to the chambers slide and allowed to adhere for 24 h. The test compound (X μM) or staurosporine (1 μM) were added to all wells except control (PBS) and incubated for 24 hours. Wells treated with staurosporine were immediately washed (PBS) and fixed (4% paraformaldehyde) when cell morphology became round (2–4 h). After washing and fixing, cells were permeablized (0.1% Triton X-100; 10 min), washed (× 5~5 min each), air dried and blocked with 1% BSA in 1:50 TBS-Tween for 1 h at room temperature. Cells were incubated with goat anti-active caspase-3 (R&D system, UK; 1% BSA in TBS-Tween) for 1 h. […]

[6] = test system: phospho-ERK1/2 in BAEC; assay: Western blot of ERK1/2 phosphorylation; assay type: cell-based, bovine; details: BAEC; FGF-2 25 ng/ml; Western blot
Method: Figure 9 (A) Western blots of p-ERK-1 and -2 were performed on BAEC treated with compound 1 as described below. (B) The bar charts show relative protein expression compared to the control given an arbitrary value of 1.0. All experiments were performed at least twice and a representative example is shown. Lane 1 control, lane 2 FGF-2 (25 ng/ml), lane 3 compound 1 ([…]), lane 4 compound 1 (14.3 μM) + FGF-2, lane 5 compound 1 (28.6 μM), lane 6 compound 1 (28.6 μM) + FGF-2.
The method is described in detail elsewhere. In brief, cells were lysed in RIPA buffer, protein concentration determined using the Biorad assay, and approximately 20 μg aliquots separated by 12% SDS-PAGE, electroblotted onto nitrocellulose filters (Hoefer, San Francisco, Ca, USA), blocked overnight with 1% BSA in TBS-Tween and incubated for 4 h at RT with characterised antibodies to phosphor-ERK1/2 (AutogenBioclear, mouse monoclonal, 1:1000). α-Actin (Sigma, UK; 1:1000) was used as a loading control. Filters were washed in TBS-Tween and stained with antibodies to peroxidase-conjugated secondary antibody. Proteins were detected with the ECL system (Amersham, UK). Protein expression was estimated spectrophotometrically from band intensity. Results are semi-quantitative and given a numerical value compared to the weakest observed band assigned an arbitrary value of 1.0. […]

[7] = test system: VEGF receptor; assay: ELISA binding assay of VEGF to soluble receptor; details: results not shown
Method: Competition between growth factors, their cell surface receptors and test compounds was assessed in an ELISA assay as described by. A 96-well plate was coated overnight with 2 μg/ml of the soluble receptors (FGFR-1 or -2 and VEGFR-1 or -2) and blocked with 1% BSA in PBS containing 0.05% Tween-20. The test compound and FGF-2 or VEGF were pre-mixed for 2 h and added to the plate and incubated for 2 h. The plate was washed (× 3 with PBS-Tween-20) and incubated with anti-FGF-2 IgG (1:500 in PBS-Tween-20) or anti-VEGF IgG (!:250 in PBS-Tween-20) for 45 min, washed and incubated with horseradish peroxidase conjugated goat anti-IgG (Santa Cruz, 1:1000) for a further 45 min. After washing (× 3), ABTS peroxidase substrate was added and the absorbance read at 405 nm. IC50 values were calculated from the data using the EZ-Fit enzyme kinetic software (Perella Scientific Inc., Amherst, USA).

Structure (SMILES): COc1cc(C=Cc2ccc(O)cc2)cc(OC2OC(COC3OC(C)C(O)C(O)C3O)C(O)C(O)C2OC2OC(C)C(O)C(O)C2O)c1 (stereo not drawn) [Compound 1]
- IC50 [1]: 30.1 ± 0.85 µM
- IC50 [2]: 5.8 ± 0.18 µM
- IC50 [3]: 40 ± 0.2 µM
- Inflammatory or angiogenic response of compound alone ([4]; 10 μg compound alone, without FGF-2): no inflammatory or angiogenic response
- In vivo CAM assay, inhibition of FGF-2-induced angiogenesis ([4]; 10 μg compound with FGF-2, 6 days exposure, listed as I): complete inhibition
- Degree of angiogenesis (m), median score ([4]; 10 μg compound with FGF-2, scale 0 to 3 or greater): 0
- Cytotoxic effect [5]: no significant cytotoxic effect
- Inhibition of FGF-2-induced ERK1/2 phosphorylation [6]: inhibited
- Effect on binding to the VEGF receptor [7]: did not bind
